Data taken from PubChem BioAssay (NCI).
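Five compound concentrations were applied to cells in 96-well plates for 48 hours; endpoints were derived by simple linear interpolation of the resulting dose-response curve. Abbreviation: GI50, concentration required for 50% inhibition of growth. TGI is the concentration that stops growth completely.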

How the values were obtained:
Experiment in all cases: NCI-60 cell line screen, 48 h
786-0 renal = test system: 786-0 renal
A498 renal = test system: A498 renal
A549 NSCLC = test system: A549 NSCLC
ACHN renal = test system: ACHN renal
BT-549 breast = test system: BT-549 breast
CAKI-1 renal = test system: CAKI-1 renal
CCRF-CEM leukemia = test system: CCRF-CEM leukemia
COLO 205 colon = test system: COLO 205 colon
DU-145 prostate = test system: DU-145 prostate
EKVX NSCLC = test system: EKVX NSCLC
HCC-2998 colon = test system: HCC-2998 colon
HCT-116 colon = test system: HCT-116 colon
HCT-15 colon = test system: HCT-15 colon
HL-60(TB) leukemia = test system: HL-60(TB) leukemia
HOP-62 NSCLC = test system: HOP-62 NSCLC
HOP-92 NSCLC = test system: HOP-92 NSCLC
HS 578T breast = test system: HS 578T breast
HT29 colon = test system: HT29 colon
IGROV1 ovarian = test system: IGROV1 ovarian
K-562 leukemia = test system: K-562 leukemia
KM12 colon = test system: KM12 colon
LOX IMVI melanoma = test system: LOX IMVI melanoma
M14 melanoma = test system: M14 melanoma
MALME-3M melanoma = test system: MALME-3M melanoma
MCF7 breast = test system: MCF7 breast
MDA-MB-231 breast = test system: MDA-MB-231 breast
MDA-MB-435 = test system: MDA-MB-435
MDA-MB-468 breast = test system: MDA-MB-468 breast
MOLT-4 leukemia = test system: MOLT-4 leukemia
NCI-H226 lung = test system: NCI-H226 lung
NCI-H23 lung = test system: NCI-H23 lung
NCI-H460 lung = test system: NCI-H460 lung
NCI-H522 lung = test system: NCI-H522 lung
NCI/ADR-RES ovarian = test system: NCI/ADR-RES ovarian
OVCAR-3 ovarian = test system: OVCAR-3 ovarian
OVCAR-4 ovarian = test system: OVCAR-4 ovarian
OVCAR-5 ovarian = test system: OVCAR-5 ovarian
OVCAR-8 ovarian = test system: OVCAR-8 ovarian
PC-3 prostate = test system: PC-3 prostate
RPMI-8226 leukemia = test system: RPMI-8226 leukemia
RXF 393 renal = test system: RXF 393 renal
SF-268 CNS = test system: SF-268 CNS
SF-295 CNS = test system: SF-295 CNS
SF-539 CNS = test system: SF-539 CNS
SK-MEL-2 melanoma = test system: SK-MEL-2 melanoma
SK-MEL-28 melanoma = test system: SK-MEL-28 melanoma
SK-MEL-5 melanoma = test system: SK-MEL-5 melanoma
SK-OV-3 ovarian = test system: SK-OV-3 ovarian
SN12C renal = test system: SN12C renal
SNB-19 CNS = test system: SNB-19 CNS
SNB-75 CNS = test system: SNB-75 CNS
SR leukemia = test system: SR leukemia
SW-620 colon = test system: SW-620 colon
T-47D breast = test system: T-47D breast
TK-10 renal = test system: TK-10 renal
U251 CNS = test system: U251 CNS
UACC-257 melanoma = test system: UACC-257 melanoma
UACC-62 melanoma = test system: UACC-62 melanoma
UO-31 renal = test system: UO-31 renal

`S=C(NCCc1ccccc1)Nc1ccc(OCc2nc3ccc(Cl)cc3[nH]2)cc1` showed a GI50 (786-0 renal) of 7.67 µM, a TGI (786-0 renal) of 21.4 µM and a GI50 (A498 renal) of 10.4 µM. For the same compound, the TGI (A498 renal) was 22.7 µM, the GI50 (A549 NSCLC) was 12.6 µM and the TGI (A549 NSCLC) was 31.5 µM. The GI50 (ACHN renal) was 7.74 µM, the TGI (ACHN renal) was 20.4 µM and the GI50 (BT-549 breast) was 10.4 µM. It also gave a TGI (BT-549 breast) of 22.5 µM, a GI50 (CAKI-1 renal) of 4.32 µM and a TGI (CAKI-1 renal) of 17.7 µM. The GI50 (CCRF-CEM leukemia) was 3.06 µM, the TGI (CCRF-CEM leukemia) was 14.8 µM and the GI50 (COLO 205 colon) was 12.4 µM. It also gave a TGI (COLO 205 colon) of 28 µM, a GI50 (DU-145 prostate) of 12 µM and a TGI (DU-145 prostate) of 25 µM. It also gave a GI50 (EKVX NSCLC) of 7.97 µM, a TGI (EKVX NSCLC) of 21.2 µM and a GI50 (HCC-2998 colon) of 6.1 µM. For the same compound, the TGI (HCC-2998 colon) was 20.4 µM, the GI50 (HCT-116 colon) was 4.65 µM and the TGI (HCT-116 colon) was 17.6 µM. It also gave a GI50 (HCT-15 colon) of 4.9 µM, a TGI (HCT-15 colon) of 18 µM and a GI50 (HL-60(TB) leukemia) of 1.26 µM. For the same compound, the TGI (HL-60(TB) leukemia) was 4.35 µM, the GI50 (HOP-62 NSCLC) was 14 µM and the TGI (HOP-62 NSCLC) was 28.7 µM. It also gave a GI50 (HOP-92 NSCLC) of 3.52 µM, a TGI (HOP-92 NSCLC) of 17 µM and a GI50 (HS 578T breast) of 8.41 µM. It also gave a TGI (HS 578T breast) of 31.9 µM, a GI50 (HT29 colon) of 9.67 µM and a TGI (HT29 colon) of 24.4 µM. The GI50 (IGROV1 ovarian) was 6.26 µM, the TGI (IGROV1 ovarian) was 19.9 µM and the GI50 (K-562 leukemia) was 3.04 µM. The TGI (K-562 leukemia) was 20 µM, the GI50 (KM12 colon) was 10.5 µM and the TGI (KM12 colon) was 23.6 µM. It also gave a GI50 (LOX IMVI melanoma) of 4.02 µM, a TGI (LOX IMVI melanoma) of 16.1 µM and a GI50 (M14 melanoma) of 9.53 µM. For the same compound, the TGI (M14 melanoma) was 22 µM, the GI50 (MALME-3M melanoma) was 12.5 µM and the TGI (MALME-3M melanoma) was 25.2 µM. It also gave a GI50 (MCF7 breast) of 3.14 µM, a TGI (MCF7 breast) of 15.5 µM and a GI50 (MDA-MB-231 breast) of 5.75 µM. It also gave a TGI (MDA-MB-231 breast) of 19.4 µM, a GI50 (MDA-MB-435) of 4.36 µM and a TGI (MDA-MB-435) of 17.6 µM. It also gave a GI50 (MDA-MB-468 breast) of 3.78 µM, a TGI (MDA-MB-468 breast) of 17.4 µM and a GI50 (MOLT-4 leukemia) of 2.46 µM. The TGI (MOLT-4 leukemia) was 7.51 µM, the GI50 (NCI-H226 lung) was 12.9 µM and the TGI (NCI-H226 lung) was 35.5 µM. It also gave a GI50 (NCI-H23 lung) of 10.9 µM, a TGI (NCI-H23 lung) of 23.7 µM and a GI50 (NCI-H460 lung) of 4.31 µM. For the same compound, the TGI (NCI-H460 lung) was 17.3 µM, the GI50 (NCI-H522 lung) was 2.22 µM and the TGI (NCI-H522 lung) was 7.02 µM. The GI50 (NCI/ADR-RES ovarian) was 7.15 µM, the TGI (NCI/ADR-RES ovarian) was 25.5 µM and the GI50 (OVCAR-3 ovarian) was 3.51 µM. It also gave a TGI (OVCAR-3 ovarian) of 17.1 µM, a GI50 (OVCAR-4 ovarian) of 7 µM and a TGI (OVCAR-4 ovarian) of 23.9 µM. It also gave a GI50 (OVCAR-5 ovarian) of 11.5 µM, a TGI (OVCAR-5 ovarian) of 23.6 µM and a GI50 (OVCAR-8 ovarian) of 11.9 µM. It also gave a TGI (OVCAR-8 ovarian) of 30.4 µM, a GI50 (PC-3 prostate) of 6.8 µM and a TGI (PC-3 prostate) of 22.9 µM. For the same compound, the GI50 (RPMI-8226 leukemia) was 4.54 µM, the TGI (RPMI-8226 leukemia) was 45.5 µM and the GI50 (RXF 393 renal) was 4.07 µM. It also gave a TGI (RXF 393 renal) of 17.1 µM, a GI50 (SF-268 CNS) of 11.1 µM and a TGI (SF-268 CNS) of 27.1 µM. The GI50 (SF-295 CNS) was 7.08 µM, the TGI (SF-295 CNS) was 21.7 µM and the GI50 (SF-539 CNS) was 8.77 µM. It also gave a TGI (SF-539 CNS) of 20.9 µM, a GI50 (SK-MEL-2 melanoma) of 13.1 µM and a TGI (SK-MEL-2 melanoma) of 26.2 µM. For the same compound, the GI50 (SK-MEL-28 melanoma) was 12.6 µM, the TGI (SK-MEL-28 melanoma) was 25.3 µM and the GI50 (SK-MEL-5 melanoma) was 12.7 µM. It also gave a TGI (SK-MEL-5 melanoma) of 25.7 µM, a GI50 (SK-OV-3 ovarian) of 14.2 µM and a TGI (SK-OV-3 ovarian) of 27.9 µM. It also gave a GI50 (SN12C renal) of 6.28 µM, a TGI (SN12C renal) of 20.1 µM and a GI50 (SNB-19 CNS) of 11.6 µM. It also gave a TGI (SNB-19 CNS) of 23.8 µM, a GI50 (SNB-75 CNS) of 1.63 µM and a TGI (SNB-75 CNS) of 14.9 µM. The GI50 (SR leukemia) was 2.2 µM, the TGI (SR leukemia) was 6.99 µM and the GI50 (SW-620 colon) was 9.72 µM. For the same compound, the TGI (SW-620 colon) was 22.7 µM, the GI50 (T-47D breast) was 5.61 µM and the TGI (T-47D breast) was 25.3 µM. The GI50 (TK-10 renal) was 13.8 µM, the TGI (TK-10 renal) was 27.3 µM and the GI50 (U251 CNS) was 13.1 µM. For the same compound, the TGI (U251 CNS) was 27.1 µM, the GI50 (UACC-257 melanoma) was 13.7 µM and the TGI (UACC-257 melanoma) was 27.4 µM. The GI50 (UACC-62 melanoma) was 7.94 µM, the TGI (UACC-62 melanoma) was 20.8 µM and the GI50 (UO-31 renal) was 3.37 µM. The TGI (UO-31 renal) was 16 µM.
